Article PMC8920097, “Prediction of hERG inhibition of drug discovery compounds using biomimetic HPLC measurements” (ADMET & DMPK, 2021)
Read-outs that look alike come from different tables or passages of the source.

Key:
[1] = CHI lipophilicity by gradient reversed-phase HPLC (Gemini NX-C-18); conditions: for chromatographic logD: Gemini NX-C-18 reversed-phase HPLC column, pH 7.4; for chromatographic logP: reversed-phase HPLC, Gemini NX-C-18 column (50 x 3 mm, 5 µm)
Protocol: The Chromatographic Hydrophobicity Index (CHI) was measured using the compounds’ calibrated gradient retention times obtained from an Agilent 1100 HPLC fitted with a Gemini NX-C-18 column (Phenomenex Ltd Macclesfield, UK) with dimensions of 50 x 3 mm and 5 μm particle size. […] The mobile phase B was 100 % acetonitrile. […] An acetonitrile linear gradient was used from 0 to 100 %. […] The retention time values for a standard set of compounds listed in Table 1 were used to convert the drug retention times to CHI values.

[2] = Charge character of the drugs at pH 7.4; assay type: physicochemical
[3] = Phospholipid binding at pH 7.4 on IAM PC.DD2 HPLC column; assay type: physicochemical; parameters: key to CHI IAM: approximates acetonitrile concentration (%) in mobile phase at elution
Protocol: The phospholipid-binding was measured using an IAM PC.DD2 column with dimensions of 100 x 4.6 mm (Regis Technologies Inc., Morton Grove, IL, USA). The gradient retention times were measured using a 50 mM ammonium acetate mobile phase with the pH adjusted to 7.4. The mobile phase flow rate was 1.5 mL/min. […] The cycle time was 6 min, plus an additional 1 min equilibration time was applied while the injector prepared for the next injection. The gradient retention times were calibrated with the acetophenone homologues for which the CHI IAM values have been established using isocratic measurements. […] The CHI Index on the IAM column (CHI IAM) approximates the acetonitrile concentration in the mobile phase when the compound elutes. […] The CHI IAM values have been converted to log k IAM values derived from the CHI IAM values using equation 1. It represents the equivalent value derived from several isocratic measurements with extrapolated log retention factors to 100 % aqueous mobile phase. The log k IAM values can be converted to log K (IAM) values and show linear relationships with the octanol/water partition coefficients.

hERG channel = conditions: cited from earlier work
[4] = system: alpha-1-acid-glycoprotein (AGP); assay: Protein binding on Chiralpak AGP HPLC column; conditions: pH 7.4, Chiralpak AGP
Protocol: The measurement of the biomimetic properties of the available drugs was conducted in our laboratories. Generic gradient HPLC methods were used to determine the chromatographic hydrophobicity Index (CHI) using mobile phases at three different pH values. The protein binding of the compounds was measured using immobilised human serum albumin (HSA), and alpha-1-acid-glycoprotein (AGP) stationary phases. The phospholipid-binding was measured using the immobilised artificial membrane (IAM) stationary phase. The aim was to establish relationships between the cardiotoxicity potential and the biomimetic binding properties of the drugs and to evaluate their predictive performance.

[5] = pH 7.4, derived from CHI IAM by equation 1
[6] = literature values, mean where several reported, molar

| Compound | chromatographic logD [1] | chromatographic logP [1] | Charge [2] | log k IAM [3, 5] | hERG pIC50 (hERG channel; [6]) | log k AGP [4] | CHI IAM ([3]; pH 7.4) | hERG pIC50 (hERG channel) | log k IAM ([3]; pH 7.4) |
| --- | --- | --- | --- | --- | --- | --- | --- | --- | --- |
| CN(C)CCC=C1c2ccccc2CCc2ccccc21 [Amitriptyline] | 2.65 | 5.21 | Basic | 2.96 | – | – | – | – | – |
| CN1CCc2cccc3c2[C@H]1Cc1ccc(O)c(O)c1-3 [Apomorphine] | 1.17 | 2.66 | – | 2.24 | – | – | – | – | – |
| CC(C)NCC(O)COc1ccc(CC(N)=O)cc1 (stereo not shown) [Atenolol] | – | – | Basic | 1.14 | – | – | – | – | – |
| O=C(O)COCCN1CCN(C(c2ccccc2)c2ccc(Cl)cc2)CC1 (stereo not shown) [Cetirizine] | – | – | – | 2.29 | – | – | – | – | – |
| CCN(CC)CCCC(C)Nc1ccnc2cc(Cl)ccc12 (stereo not shown) [Chloroquine] | – | – | – | – | 5.03 | – | – | – | – |
| CN(C)CCCN1c2ccccc2Sc2ccc(Cl)cc21 [Chlorpromazine] | -0.58 | 0.97 | Basic | 2.64 | 5.65 | 1.79 | 48.16 | – | – |
| O=C(O)c1cn(C2CC2)c2cc(N3CCNCC3)c(F)cc2c1=O [Ciprofloxacin] | – | – | Zwitterionic | 1.59 | – | – | – | – | – |
| CN(C)CCCC1(c2ccc(F)cc2)OCc2cc(C#N)ccc21 (stereo not shown) [Citalopram] | – | – | Basic | – | – | – | – | 5.27 | – |
| CN1CCC[C@@H]1CCO[C@](C)(c1ccccc1)c1ccc(Cl)cc1 [Clemastine] | 3.18 | 3.18 | Basic | 3.19 | – | 1.18 | – | – | – |
| CNCCCN1c2ccccc2CCc2ccccc21 [Desipramine] | – | – | Basic | – | 5.36 | 0.94 | – | – | – |
| COc1ccc([C@@H]2Sc3ccccc3N(CCN(C)C)C(=O)[C@@H]2OC(C)=O)cc1 [Diltiazem] | 2.76 | 3.12 | Basic | 2.35 | – | – | 41.95 | – | – |
| CN(C)CCOC(c1ccccc1)c1ccccc1 [Diphenhydramine] | – | – | Basic | 2.06 | – | – | – | – | – |
| O=C(O[C@@H]1C[C@@H]2C[C@H]3C[C@H](C1)N2CC3=O)c1c[nH]c2ccccc12 [Dolasetron] | 1.46 | 1.46 | Weak Base | 1.95 | – | – | – | – | – |
| CC(C)(C)c1ccc(C(=O)CCCN2CCC(OC(c3ccccc3)c3ccccc3)CC2)cc1 [Ebastine] | 4.96 | 6.54 | Basic | 3.12 | – | 1.34 | – | – | – |
| CC[C@H]1OC(=O)[C@H](C)[C@@H](O[C@H]2C[C@@](C)(OC)[C@@H](O)[C@H](C)O2)[C@H](C)[C@@H](O[C@@H]2O[C@H](C)C[C@H](N(C)C)[C@H]2O)[C@](C)(O)C[C@@H](C)C(=O)[C@H](C)[C@@H](O)[C@]1(C)O [Erythromycin] | 1.31 | 2.6 | Basic | 2.20 | – | – | 38.79 | – | – |
| CNCCC(Oc1ccc(C(F)(F)F)cc1)c1ccccc1 (stereo not shown) [Fluoxetine] | – | – | – | – | 5.73 | – | – | – | – |
| COc1ccc(Cl)cc1C(=O)NCCc1ccc(S(=O)(=O)NC(=O)NC2CCCCC2)cc1 [Glibenclamide] | 2.07 | 3.17 | Acidic | 1.93 | – | – | – | – | – |
| CCC1=C(C)CN(C(=O)NCCc2ccc(S(=O)(=O)NC(=O)N[C@H]3CC[C@H](C)CC3)cc2)C1=O [Glimepiride] | 2.42 | 3.25 | – | 1.83 | – | 0.40 | 30.76 | 4.13 | – |
| CN(C)CCCN1c2ccccc2CCc2ccccc21 [Imipramine] | – | – | – | – | – | 0.96 | – | – | – |
| CC(=O)N1CCN(c2ccc(OCC3COC(Cn4ccnc4)(c4ccc(Cl)cc4Cl)O3)cc2)CC1 (stereo not shown) [Ketoconazole] | – | – | – | 2.16 | – | – | 37.86 | – | – |
| C[C@H]1COc2c(N3CCN(C)CC3)c(F)cc3c(=O)c(C(=O)O)cn1c23 [Levofloxacin] | 0.54 | – | Zwitterionic | 1.73 | – | -0.74 | 28.55 | 2.93 | – |

| Compound | chromatographic logD [1] | chromatographic logP [1] | Charge [2] | log k IAM [3, 5] | hERG pIC50 (hERG channel; [6]) | log k AGP [4] | CHI IAM ([3]; pH 7.4) | hERG pIC50 (hERG channel) | log k IAM ([3]; pH 7.4) |
| --- | --- | --- | --- | --- | --- | --- | --- | --- | --- |
| CCN(CC)CC(=O)Nc1c(C)cccc1C [Lidocaine] | – | – | Weak Base | 1.91 | – | – | – | – | – |
| CCn1cc(C(=O)O)c(=O)c2cc(F)c(N3CCNC(C)C3)c(F)c21 (stereo not shown) [Lomefloxacin] | -0.14 | -0.14 | – | 2.16 | – | – | 37.89 | – | – |
| CCOC(=O)N1CCC(=C2c3ccc(Cl)cc3CCc3cccnc32)CC1 [Loratadine] | – | – | Weak Base | 2.46 | – | – | – | – | – |
| CC[C@H](C)C(=O)O[C@H]1C[C@@H](C)C=C2C=C[C@H](C)[C@H](CC[C@@H]3C[C@@H](O)CC(=O)O3)[C@H]21 [Lovastatin] | 4.09 | – | – | 2.46 | – | – | 44.38 | – | – |
| CNCCCC12CCC(c3ccccc31)c1ccccc12 [Maprotiline] | 2.03 | 4.79 | Basic | 3.03 | 5.17 | 0.99 | – | – | – |
| COCC(=O)O[C@]1(CCN(C)CCCc2nc3ccccc3[nH]2)CCc2cc(F)ccc2[C@@H]1C(C)C [Mibefradil] | 2.96 | 3.99 | Basic | 2.96 | – | 1.11 | – | 5.88 | – |
| Clc1ccc(COC(Cn2ccnc2)c2ccc(Cl)cc2Cl)c(Cl)c1 (stereo not shown) [Miconazole] | 4.64 | 4.7 | Weak Base | 2.89 | – | 1.26 | 53.72 | 5.68 | – |
| CCOC(=O)C1=C(C)NC(C)=C(C(=O)OC)C1c1cccc([N+](=O)[O-])c1 (stereo not shown) [Nitrendipine] | 3.15 | 3.19 | Neutral | – | 5.10 | 0.69 | – | – | – |
| CC1COc2c(N3CCN(C)CC3)c(F)cc3c(=O)c(C(=O)O)cn1c23 (stereo not shown) [Ofloxacin] | 0.53 | – | Zwitterionic | 1.62 | – | -0.81 | – | 2.93 | – |
| Cc1cc2c(s1)Nc1ccccc1N=C2N1CCN(C)CC1 [Olanzapine] | – | – | Weak Base | – | – | – | – | – | 2.71 |
| CCN(CC)CCNC(=O)c1ccc(N)cc1 [Procainamide] | -0.59 | 0.95 | Basic | 1.29 | – | – | – | – | – |
| OCCOCCN1CCN(C2=Nc3ccccc3Sc3ccccc32)CC1 [Quetiapine] | 2.55 | 2.69 | – | – | – | – | – | – | – |
| C=C[C@H]1C[N@@]2CC[C@H]1C[C@@H]2[C@@H](O)c1ccnc2ccc(OC)cc12 [Quinidine] | – | – | Basic | 2.71 | – | 0.68 | – | 5.51 | – |
| Cc1nc2n(c(=O)c1CCN1CCC(c3noc4cc(F)ccc34)CC1)CCCC2 [Risperidone] | – | – | Weak Base | 2.09 | – | – | – | – | – |
| CC(C)c1nc(CN(C)C(=O)N[C@H](C(=O)N[C@@H](Cc2ccccc2)C[C@H](O)[C@H](Cc2ccccc2)NC(=O)OCc2cncs2)C(C)C)cs1 [Ritonavir] | 3.25 | 3.41 | Neutral | 2.2 | – | 0.64 | 38.64 | – | – |
| CCCc1nn(C)c2c(=O)[nH]c(-c3cc(S(=O)(=O)N4CCN(C)CC4)ccc3OCC)nc12 [Sildenafil] | 2.59 | 2.62 | Weak Base | 2.03 | – | – | 35.00 | – | – |
| Cc1cc(NS(=O)(=O)c2ccc(N)cc2)no1 [Sulfamethoxazole] | – | – | – | 1.01 | – | – | – | – | – |
| CSc1ccc2c(c1)N(CCC1CCCCN1C)c1ccccc1S2 (stereo not shown) [Thioridazine] | 3.02 | 5.46 | – | 3.65 | – | – | – | – | – |
| Cc1ccc(O)c([C@H](CCN(C(C)C)C(C)C)c2ccccc2)c1 [Tolterodine] | 2 | 4.95 | – | 2.83 | – | – | – | – | – |
| Nicotine | – | – | – | – | – | – | – | 3.61 | – |
| Prazosin | – | – | – | – | 5.22 | – | – | – | – |
